# Reference: the supplement of paper PMC10307832
# Experiments:
# Assay in all cases: relative viability (nuclei count vs DMSO), 5 days (fraction); higher = more cells survive
# [1] = system: 201T
# How it was run: (§1)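 Cells from lung cancer lines were seeded into 1536-well plates and, one day later, dosed by pin tool. Treatments were either a single drug or a fixed dose of an anchor drug with five library-drug doses (not always all listed) in √10 steps. After 5 days, nuclei were stained in a one-step fixation (final 0.05% Triton X-100, 1% formaldehyde, 1 ug/ml Hoechst) and counted on 4× images, and relative viability is the treated-to-vehicle nuclei ratio, as the median of duplicate plates.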
# [2] = system: COR-L 105
# How it was run: as §1
# [3] = system: ChaGo-K-1
# How it was run: as §1
# [4] = system: EPLC-272H
# How it was run: as §1
# [5] = system: H3255
# How it was run: as §1
# [6] = system: HCC-78
# How it was run: as §1
# [7] = system: HCC-827
# How it was run: as §1
# [8] = system: LC-2-ad
# How it was run: as §1
# [9] = system: LCLC-97TM1
# How it was run: as §1
# [10] = system: NCI-H1666
# How it was run: as §1
# [11] = system: NCI-H1915
# How it was run: as §1
smiles,measurement,setting,value
O=c1cc(-c2cccc3c2Sc2ccccc2S3)oc(N2CCOCC2)c1 + C[C@@H](Oc1cc(-c2cnn(C3CCNCC3)c2)cnc1N)c1c(Cl)ccc(F)c1Cl [Crizotinib] (partner 1 µM),relative viability,[1]; first compound 0.08 µM,1
same,relative viability,[1]; first compound 0.253 µM,0.889
same,relative viability,[1]; first compound 0.8 µM,1
same,relative viability,[1]; first compound 2.53 µM,1.08
same,relative viability,[1]; first compound 8 µM,0.958
same,relative viability,[2]; first compound 0.08 µM,0.833
same,relative viability,[2]; first compound 0.253 µM,0.706
same,relative viability,[2]; first compound 0.8 µM,0.752
same,relative viability,[2]; first compound 2.53 µM,0.798
same,relative viability,[2]; first compound 8 µM,1.07
same,relative viability,[3]; first compound 0.08 µM,1.09
same,relative viability,[3]; first compound 0.253 µM,1.35
same,relative viability,[3]; first compound 0.8 µM,1.25
same,relative viability,[3]; first compound 8 µM,1.22
same,relative viability,[4]; first compound 0.08 µM,0.786
same,relative viability,[4]; first compound 0.253 µM,0.891
same,relative viability,[4]; first compound 0.8 µM,1.19
same,relative viability,[4]; first compound 2.53 µM,0.963
same,relative viability,[4]; first compound 8 µM,1.08
same,relative viability,[5]; first compound 0.08 µM,0.89
same,relative viability,[5]; first compound 0.253 µM,0.992
same,relative viability,[5]; first compound 0.8 µM,1.02
same,relative viability,[5]; first compound 2.53 µM,0.747
same,relative viability,[5]; first compound 8 µM,1.26
same,relative viability,[6]; first compound 0.08 µM,0.286
same,relative viability,[6]; first compound 0.253 µM,0.34
same,relative viability,[6]; first compound 0.8 µM,0.291
same,relative viability,[6]; first compound 2.53 µM,0.342
same,relative viability,[6]; first compound 8 µM,0.34
same,relative viability,[7]; first compound 0.08 µM,0.943
same,relative viability,[7]; first compound 0.253 µM,0.921
same,relative viability,[7]; first compound 0.8 µM,0.997
same,relative viability,[7]; first compound 2.53 µM,0.8
same,relative viability,[7]; first compound 8 µM,0.967
same,relative viability,[8]; first compound 0.08 µM,0.392
same,relative viability,[8]; first compound 0.253 µM,0.499
same,relative viability,[8]; first compound 0.8 µM,0.525
same,relative viability,[8]; first compound 2.53 µM,0.436
same,relative viability,[8]; first compound 8 µM,0.509
same,relative viability,[9]; first compound 0.08 µM,0.373
same,relative viability,[9]; first compound 0.253 µM,0.408
same,relative viability,[9]; first compound 0.8 µM,0.459
same,relative viability,[9]; first compound 2.53 µM,0.334
same,relative viability,[9]; first compound 8 µM,0.456
same,relative viability,[10]; first compound 0.08 µM,0.911
same,relative viability,[10]; first compound 0.253 µM,1.04
same,relative viability,[10]; first compound 0.8 µM,0.922
same,relative viability,[10]; first compound 2.53 µM,0.916
same,relative viability,[10]; first compound 8 µM,0.857
same,relative viability,[11]; first compound 0.08 µM,1.02
same,relative viability,[11]; first compound 0.253 µM,0.987
same,relative viability,[11]; first compound 0.8 µM,1.02
same,relative viability,[11]; first compound 2.53 µM,0.905
same,relative viability,[11]; first compound 8 µM,0.847
